Assay results as given in ChEMBL document CHEMBL1137465, “Cytostatic evaluations of nucleoside analogs related to unnatural base pairs for a genetic expansion system” (Bioorg Med Chem Lett, 2007).

Key:
CCRF-CEM [1] = assay: Cytostatic activity against human CCRFCEM cells at 500 uM by MTT assay; assay type: functional
HT-1080 [2] = assay: Cytostatic activity against human HT1080 cells by MTT assay; assay type: functional, cell-based
[3] = Cytostatic activity against human WI38 cells at 500 uM by MTT assay; assay type: ADME, cell-based, WI-38
HT-1080 [4] = assay: Cytostatic activity against human HT1080 cells at 500 uM by MTT assay; assay type: functional
CCRF-CEM [5] = assay: Cytostatic activity against human CCRFCEM cells by MTT assay; assay type: functional, cell-based
[6] = Cytostatic activity against human WI38 cells MTT assay; assay type: ADME, cell-based; conditions: WI-38
HT-1080 [7] = assay: Cytostatic activity against human HT1080 cells assessed as relative percent survival at 5 uM by MTT assay; assay type: functional; conditions: read-out: Survival
HT-1080 [8] = assay: Cytostatic activity against human HT1080 cells assessed as relative percent survival at 25 uM by MTT assay; assay type: functional; conditions: read-out: Survival
[9] = Cytostatic activity against human WI38 cells assessed as relative percent survival at 5 uM by MTT assay; assay type: ADME, cell-based, WI-38; conditions: read-out: Survival
WI-38 = assay: Cytostatic activity against human WI38 cells assessed as relative percent survival at 25 uM by MTT assay; assay type: functional; conditions: read-out: Survival

Row | Structure (SMILES) | IC50 (HT-1080 [2]) [µM] | IC50 (CCRF-CEM [5]) [µM] | inhibition at 500 µM (CCRF-CEM [1]) [%] | inhibition at 500 µM [3] [%] | inhibition at 500 µM (HT-1080 [4]) [%] | IC50 [6] [µM] | further results
1 | Nc1nc(-c2cccs2)c2ncn([C@@H]3O[C@H](CO)[C@@H](O)[C@H]3O)c2n1 | 88 |  | < 50 | < 50 |  |  | 
2 | O=Cc1cccn1[C@@H]1O[C@H](CO)[C@@H](O)[C@H]1O |  |  | < 50 | < 50 | < 50 |  | 
3 | OC[C@H]1O[C@@H](n2cnc3c(-c4cccs4)ccnc32)[C@H](O)[C@@H]1O | 190 | 230 |  |  |  | 310 | 
4 | O=c1[nH]c(=O)n([C@H]2C[C@H](O)[C@@H](CO)O2)cc1F [FLOXURIDINE] | 0.18 | 0.29 |  |  |  | 500 | 
5 | O=c1[nH]cccc1[C@H]1C[C@H](O)[C@@H](CO)O1 |  |  |  | < 50 | < 50 |  | 
6 | Nc1nc(-c2cccs2)c2ncn([C@H]3C[C@H](O)[C@@H](CO)O3)c2n1 | 38 | 340 |  |  |  | 500 | viability at 5 µM (HT-1080 [7]): 97%; viability at 25 µM (HT-1080 [8]): 69%; viability at 5 µM [9]: 92%; viability at 25 µM (WI-38): 91%
7 | OC[C@H]1O[C@@H](n2cnc3c(-c4ccco4)ncnc32)C[C@@H]1O | 330 |  | < 50 | < 50 |  |  | 
8 | O=c1[nH]cccc1[C@@H]1O[C@H](CO)[C@@H](O)[C@H]1O |  |  |  | < 50 | < 50 |  | 
9 | O=Cc1cccn1[C@H]1C[C@H](O)[C@@H](CO)O1 |  |  | < 50 | < 50 | < 50 |  | 

The next lines start with results.

Row | IC50 (HT-1080 [2]) [µM] | IC50 (CCRF-CEM [5]) [µM] | Structure (SMILES) | inhibition at 500 µM (CCRF-CEM [1]) [%] | inhibition at 500 µM [3] [%] | inhibition at 500 µM (HT-1080 [4]) [%] | IC50 [6] [µM] | further results
10 | 290 |  | Nc1nc(-c2ccco2)c2ncn([C@H]3C[C@H](O)[C@@H](CO)O3)c2n1 | < 50 | < 50 |  |  | 
11 | 0.33 | 2.3 | OC[C@H]1O[C@@H](n2cnc3c(-c4cccs4)ncnc32)[C@H](O)[C@@H]1O |  |  |  | 5.7 | 
12 | 95 | 420 | OC[C@H]1O[C@@H](n2cnc3c(-c4cccs4)ncnc32)C[C@@H]1O |  | < 50 |  |  | 
13 | 56 | 120 | OC[C@H]1O[C@@H](n2cnc3c(-c4cccs4)ccnc32)C[C@@H]1O |  |  |  | 190 | 
